IC50 data for 25 compounds are collected here from patent US7932270B2 (Cytokinetics, Inc., priority 2006, dated 2011).

One may read the IC50 as the concentration needed to halve the response being measured.

The target in the experiment is T1, chicken gizzard smooth muscle myosin subfragment-1 chemically crosslinked to cardiac or skeletal actin (Gallus gallus, UniProt P10587).
T1 construct: chicken gizzard smooth muscle myosin subfragment-1; from tissue; host or cells: chicken gizzard
T1 sequence (P02607 2-151): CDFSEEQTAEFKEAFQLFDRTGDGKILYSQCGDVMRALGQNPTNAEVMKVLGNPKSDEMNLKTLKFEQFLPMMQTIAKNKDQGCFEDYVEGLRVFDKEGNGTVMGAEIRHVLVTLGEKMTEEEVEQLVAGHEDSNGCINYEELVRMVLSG
T1 sequence (P10587 84-789): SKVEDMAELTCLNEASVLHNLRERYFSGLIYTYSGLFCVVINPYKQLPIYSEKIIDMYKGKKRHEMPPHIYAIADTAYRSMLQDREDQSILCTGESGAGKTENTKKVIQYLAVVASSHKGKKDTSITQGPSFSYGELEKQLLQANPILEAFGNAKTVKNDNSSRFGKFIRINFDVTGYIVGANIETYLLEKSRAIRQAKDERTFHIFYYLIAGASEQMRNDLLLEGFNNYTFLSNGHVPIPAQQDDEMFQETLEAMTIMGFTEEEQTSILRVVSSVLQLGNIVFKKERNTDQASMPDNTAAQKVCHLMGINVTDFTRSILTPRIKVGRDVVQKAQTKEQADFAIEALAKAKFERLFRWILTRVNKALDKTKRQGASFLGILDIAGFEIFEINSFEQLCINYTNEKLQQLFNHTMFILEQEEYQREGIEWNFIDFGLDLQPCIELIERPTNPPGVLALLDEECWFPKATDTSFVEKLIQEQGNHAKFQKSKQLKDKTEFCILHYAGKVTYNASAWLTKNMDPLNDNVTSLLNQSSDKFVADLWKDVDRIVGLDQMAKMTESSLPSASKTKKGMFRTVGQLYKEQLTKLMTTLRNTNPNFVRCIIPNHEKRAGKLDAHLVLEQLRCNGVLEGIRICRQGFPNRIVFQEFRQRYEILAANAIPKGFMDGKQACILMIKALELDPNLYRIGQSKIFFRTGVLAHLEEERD
Briefly: Smooth muscle myosin ATPase dose response assay (pyruvate kinase/horseradish peroxidase/pyruvate oxidase-coupled, amplex red fluorescence). The format is biochemical. Particulars: read-out: IC50 Arithmetic Mean. In short, it runs like this: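 Chicken gizzard myosin S1 crosslinked to cardiac or skeletal actin, titrated to a set hydrolysis rate; 0.15 mM ATP, 12 mM PIPES pH 7.00, 100 mM KCl, 2 mM MgCl2. Pyruvate kinase/pyruvate oxidase/HRP coupling with amplex red fluorescence; IC50 from 4-parameter fit.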
With `NCCCN1C(=O)CC[C@@H]1CNC(=O)c1cc(F)c(-c2cn[nH]c2)nc1NCCc1cccc(F)c1` [N-{[(2R)-1-(3-aminopropyl)-5-oxopyrrolidin-2-yl]methyl}(5-fluoro-2-{[2-(3-fluorophenyl)ethyl]amino}-6-pyrazol-4-yl(3-pyridyl))carboxamide], the IC50 was determined as 66 nM.

Turning to `O=C(NC[C@H]1CCCN1)c1cc(F)c(-c2cn[nH]c2)nc1NCCc1cccc(F)c1` [N-[((2R)pyrrolidin-2-yl)methyl](5-fluoro-2-{[2-(3-fluorophenyl)ethyl]amino}-6-pyrazol-4-yl(3-pyridyl))carboxamide], the IC50 turned out to be 394 nM.

As for `N#Cc1ccccc1-c1ccc(C(=O)NC[C@@H]2CCCN(C(=O)CN)C2)c(NCCc2cccc(F)c2)n1` [N-{[(3S)-1-(2-aminoacetyl)(3-piperidyl)]methyl}(6-(2-cyanophenyl)-2-{[2-(3-fluorophenyl)ethyl]amino}(3-pyridyl))carboxamide], the IC50 came to 755 nM.

On to `O=C(NCc1cccnc1NCCO)c1ccc(-c2cn[nH]c2)nc1NCCc1cccc(F)c1` [(2-{[2-(3-fluorophenyl)ethyl]amino}-6-pyrazol-4-yl(3-pyridyl))-N-({2-[(2-hydroxyethyl)amino](3-pyridyl)}methyl)carboxamide], for which the IC50 came to 65 nM.

With `O=C(NCc1cccnc1)c1ccc(-c2ccccc2)nc1NCCN1CCOCC1` [{2-[(2-morpholin-4-ylethyl)amino]-6-phenyl(3-pyridyl)}-N-(3-pyridylmethyl)carboxamide], the IC50 was determined as 37300 nM.

With `C=CCNC(=O)c1ccc(-c2ccccc2)nc1NCCc1ccccn1` [{6-phenyl-2-[(2-(2-pyridyl)ethyl)amino](3-pyridyl)}-N-prop-2-enylcarboxamide], the IC50 worked out at 3120 nM.

For the compound `CC(C)(C)OC(=O)NCCCN1C(=O)CC[C@@H]1CNC(=O)c1cc(C#N)c(-c2cn[nH]c2)nc1NCCc1cccc(F)c1` [N-[((2R)-1-{3-[(tert-butoxy)carbonylamino]propyl}-5-oxopyrrolidin-2-yl)methyl](5-cyano-2-{[2-(3-fluorophenyl)ethyl]amino}-6-pyrazol-4-yl(3-pyridyl))carboxamide], the IC50 came to 3510 nM.

Take `COC(=O)CNC(=O)c1ccc(-c2ccccc2)nc1NCCc1ccccc1` [methyl 2-({6-phenyl-2-[(2-phenylethyl)amino]-3-pyridyl}carbonylamino)acetate]: the IC50 was found to be 1340 nM.

For `O=C(NCc1cccnc1)c1ccc(-c2cc(CO)ccc2Cl)nc1NCCc1cccc(F)c1` [(6-[2-chloro-5-(hydroxymethyl)phenyl]-2-{[2-(3-fluorophenyl)ethyl]amino}(3-pyridyl))-N-(3-pyridylmethyl)carboxamide], the IC50 amounted to 1190 nM.

On to `O=C(NCc1cccnc1)c1ccc(-c2ccccc2O)nc1NCCc1ccccn1` [{6-(2-hydroxyphenyl)-2-[(2-(2-pyridyl)ethyl)amino](3-pyridyl)}-N-(3-pyridylmethyl)carboxamide], for which the IC50 came out at 2170 nM.

As to `N#Cc1ccccc1-c1ccc(C(=O)NC[C@H]2CCCN2C(=O)[C@@H](N)CN)c(NCCc2cccc(F)c2)n1` [N-{[(2R)-1-((2S)-2,3-diaminopropanoyl)pyrrolidin-2-yl]methyl}(6-(2-cyanophenyl)-2-{[2-(3-fluorophenyl)ethyl]amino}(3-pyridyl))carboxamide], the IC50 was 59 nM.

Consider `C[C@H](CNC(=O)c1cc(F)c(-c2cnn(C)c2)nc1NCCc1cccc(F)c1)NS(C)(=O)=O` [N-{(2R)-2-[(methylsulfonyl)amino]propyl}(5-fluoro-2-{[2-(3-fluorophenyl)ethyl]amino}-6-(1-methylpyrazol-4-yl)(3-pyridyl))carboxamide], for which the IC50 stood at 1000 nM.

In the case of `CC(=O)N1CCCC(CNC(=O)c2ccc(-c3ccccc3)nc2NCCc2ccccn2)C1` (stereo not shown) [N-[(1-acetyl(3-piperidyl))methyl]{6-phenyl-2-[(2-(2-pyridyl)ethyl)amino](3-pyridyl)}carboxamide], the IC50 was determined as 48400 nM.

On to `NCCNc1cccc(CNC(=O)c2ccc(-c3cn[nH]c3)nc2NCCc2cccc(F)c2)n1` [N-({6-[(2-aminoethyl)amino](2-pyridyl)}methyl)(2-{[2-(3-fluorophenyl)ethyl]amino}-6-pyrazol-4-yl(3-pyridyl))carboxamide], for which the IC50 was 20 nM.

`NCCCNc1ncccc1CNC(=O)c1ccc(-c2cn[nH]c2)nc1NCCc1cccc(F)c1` [N-({2-[(3-aminopropyl)amino](3-pyridyl)}methyl)(2-{[2-(3-fluorophenyl)ethyl]amino}-6-pyrazol-4-yl(3-pyridyl))carboxamide]: the IC50 worked out at 129 nM.

On to `N#Cc1ccccc1-c1ccc(C(=O)NCCCN2C(=O)CC[C@H]2CN)c(NCCc2cccc(F)c2)n1` [N-{3-[(5S)-5-(aminomethyl)-2-oxopyrrolidinyl]propyl}(6-(2-cyanophenyl)-2-{[2-(3-fluorophenyl)ethyl]amino}(3-pyridyl))carboxamide], for which the IC50 was 11700 nM.

In the case of `O=C(NC[C@@H]1CCNC1)c1ccc(-c2ccccc2)nc1NCCc1ccccn1` [N-[((3R)pyrrolidin-3-yl)methyl]{6-phenyl-2-[(2-(2-pyridyl)ethyl)amino](3-pyridyl)}carboxamide], the IC50 was found to be 53600 nM.

On to `O=C(NCc1cccnc1)c1c(CO)cc(-c2ccccc2)nc1NCCc1cccc(F)c1` [(2-{[2-(3-fluorophenyl)ethyl]amino}-4-(hydroxymethyl)-6-phenyl(3-pyridyl))-N-(3-pyridylmethyl)carboxamide], for which the IC50 was 59100 nM.

Regarding `N#Cc1ccccc1-c1ccc(C(=O)NCC2CCCN(CCN=[N+]=[N-])C2=O)c(NCCc2cccc(F)c2)n1` (stereo not shown) [(6-(2-cyanophenyl)-2-{[2-(3-fluorophenyl)ethyl]amino}(3-pyridyl))-N-{[1-(3-diazo-3-azaprop-3-enyl)-2-oxo(3-piperidyl)]methyl}carboxamide], the IC50 was 412 nM.

In the case of `CC(C)(C)OC(=O)NCCCN1C(=O)CCCC1CNC(=O)c1ccc(-c2ccccc2C#N)nc1NCCc1cccc(F)c1` (stereo not shown) [N-[(1-{3-[(tert-butoxy)carbonylamino]propyl}-6-oxo(2-piperidyl))methyl](6-(2-cyanophenyl)-2-{[2-(3-fluorophenyl)ethyl]amino}(3-pyridyl))carboxamide], the IC50 turned out to be 877 nM.

As for `CC(C)(C)OC(=O)NC[C@H](NC(=O)c1ccc(-c2ccccc2C#N)nc1NCCc1cccc(F)c1)C(=O)O` [(2S)-3-[(tert-butoxy)carbonylamino]-2-[(6-(2-cyanophenyl)-2-{[2-(3-fluorophenyl)ethyl]amino}(3-pyridyl))carbonylamino]propanoic acid], the IC50 is 30400 nM.

Regarding `N#Cc1ccccc1-c1ccc(C(=O)NCC2(CCN=[N+]=[N-])CCCNC2=O)c(NCCc2cccc(F)c2)n1` (stereo not shown) [(6-(2-cyanophenyl)-2-{[2-(3-fluorophenyl)ethyl]amino}(3-pyridyl))-N-{[3-(3-diazo-3-azaprop-3-enyl)-2-oxo(3-piperidyl)]methyl}carboxamide], the IC50 worked out at 15800 nM.

On to `O=C(NC[C@H]1CCNC1)c1ccc(-c2ccccc2)nc1NCCc1ccccn1` [N-[((3S)pyrrolidin-3-yl)methyl]{6-phenyl-2-[(2-(2-pyridyl)ethyl)amino](3-pyridyl)}carboxamide], for which the IC50 was 62600 nM.

In the case of `N#Cc1ccccc1CCNc1nc(-c2ccccc2)ccc1C(=O)NCc1cccnc1`, the IC50 was found to be 260 nM.

Consider `C[C@H](CNC(=O)c1cc(F)c(-c2cnn(C)c2)nc1NCCc1cccc(F)c1)NC(=O)[C@H](C)N`, for which the IC50 was 131 nM.
